Values belong to the compound of their own block, whether it stands above or below them.
How the values were obtained:
[1] = test system: SKBR-3; assay: Cell proliferation inhibition assay (MTT); assay type: cell-based; conditions: Homo sapiens, SK-BR-3, 72 hours, read-out: Proliferation inhibitory activity IC50
[2] = molecular target: PIP4K2a(h) (Homo sapiens (Human), UniProt P48426); assay: Kinase inhibition assay (KinaseProfiler, 33P-ATP); assay type: biochemical; conditions: read-out: The percentage of the remaining active protein
[3] = molecular target: PI3 Kinase (p110b/p85b)(m) (Mus musculus (Mouse), UniProt Q8BTI9); assay: Kinase inhibition assay (KinaseProfiler, 33P-ATP); assay type: biochemical; conditions: read-out: The percentage of the remaining active protein
[4] = molecular target: Ros(h) (Homo sapiens (Human), UniProt P08922); assay: Kinase inhibition assay (KinaseProfiler, 33P-ATP); assay type: biochemical; conditions: read-out: The percentage of the remaining active protein
[5] = molecular target: IR(h), activated (Homo sapiens (Human), UniProt P06213); assay: Kinase inhibition assay (KinaseProfiler, 33P-ATP); assay type: biochemical; conditions: read-out: The percentage of the remaining active protein
[6] = molecular target: PKBγ(h) (Homo sapiens (Human), UniProt Q9Y243); assay: Kinase inhibition assay (KinaseProfiler, 33P-ATP); assay type: biochemical; conditions: read-out: The percentage of the remaining active protein
[7] = molecular target: PKCι(h) (Homo sapiens (Human), UniProt P41743); assay: Kinase inhibition assay (KinaseProfiler, 33P-ATP); assay type: biochemical; conditions: read-out: The percentage of the remaining active protein
[8] = molecular target: TGFBR1(h) (Homo sapiens (Human), UniProt P36897); assay: Kinase inhibition assay (KinaseProfiler, 33P-ATP); assay type: biochemical; conditions: read-out: The percentage of the remaining active protein
[9] = molecular target: DNA-PK(h) (Homo sapiens (Human), UniProt P78527); assay: Kinase inhibition assay (KinaseProfiler, 33P-ATP); assay type: biochemical; conditions: read-out: The percentage of the remaining active protein
[10] = molecular target: PKR(h) (Homo sapiens (Human), UniProt P19525); assay: Kinase inhibition assay (KinaseProfiler, 33P-ATP); assay type: biochemical; conditions: read-out: The percentage of the remaining active protein
[11] = molecular target: ALK1(h) (Homo sapiens (Human), UniProt P37023); assay: Kinase inhibition assay (KinaseProfiler, 33P-ATP); assay type: biochemical; conditions: read-out: The percentage of the remaining active protein
[12] = molecular target: MRCKα(h) (Homo sapiens (Human), UniProt Q5VT25); assay: Kinase inhibition assay (KinaseProfiler, 33P-ATP); assay type: biochemical; conditions: read-out: The percentage of the remaining active protein
[13] = molecular target: PAK2(h) (Homo sapiens (Human), UniProt Q13177); assay: Kinase inhibition assay (KinaseProfiler, 33P-ATP); assay type: biochemical; conditions: read-out: The percentage of the remaining active protein
[14] = molecular target: Abl(Y253F)(h) (Homo sapiens (Human), UniProt P00519, Y253F); assay: Kinase inhibition assay (KinaseProfiler, 33P-ATP); assay type: biochemical; conditions: read-out: The percentage of the remaining active protein
[15] = molecular target: AMPKα1(h) (Homo sapiens (Human), UniProt Q13131); assay: Kinase inhibition assay (KinaseProfiler, 33P-ATP); assay type: biochemical; conditions: read-out: The percentage of the remaining active protein
[16] = molecular target: Flt4 (Homo sapiens (Human), UniProt P35916); assay: Kinase inhibition assay (KinaseProfiler, 33P-ATP); assay type: biochemical; conditions: Flt4(h), read-out: The percentage of the remaining active protein
[17] = molecular target: Tie2(R849W)(h) (Homo sapiens (Human), UniProt Q02763, R849W); assay: Kinase inhibition assay (KinaseProfiler, 33P-ATP); assay type: biochemical; conditions: read-out: The percentage of the remaining active protein
[18] = molecular target: PAK4(h) (Homo sapiens (Human), UniProt O96013); assay: Kinase inhibition assay (KinaseProfiler, 33P-ATP); assay type: biochemical; conditions: read-out: The percentage of the remaining active protein
[19] = molecular target: PI3 Kinase (p110a(E542K)/p85a)(h) (Homo sapiens (Human), UniProt P42336, E542K); assay: Kinase inhibition assay (KinaseProfiler, 33P-ATP); assay type: biochemical; conditions: read-out: The percentage of the remaining active protein
[20] = molecular target: ATR/ATRIP(h) (Homo sapiens (Human), UniProt Q13535); assay: Kinase inhibition assay (KinaseProfiler, 33P-ATP); assay type: biochemical; conditions: read-out: The percentage of the remaining active protein
[21] = molecular target: IRAK1(h) (Homo sapiens (Human), UniProt P51617); assay: Kinase inhibition assay (KinaseProfiler, 33P-ATP); assay type: biochemical; conditions: read-out: The percentage of the remaining active protein
[22] = molecular target: MSK1(h) (Homo sapiens (Human), UniProt O75582); assay: Kinase inhibition assay (KinaseProfiler, 33P-ATP); assay type: biochemical; conditions: read-out: The percentage of the remaining active protein
[23] = molecular target: GCN2(h) (Homo sapiens (Human), UniProt Q9P2K8); assay: Kinase inhibition assay (KinaseProfiler, 33P-ATP); assay type: biochemical; conditions: read-out: The percentage of the remaining active protein
[24] = molecular target: GSK3α(h) (Homo sapiens (Human), UniProt P49840); assay: Kinase inhibition assay (KinaseProfiler, 33P-ATP); assay type: biochemical; conditions: read-out: The percentage of the remaining active protein
[25] = molecular target: NEK3(h) (Homo sapiens (Human), UniProt P51956); assay: Kinase inhibition assay (KinaseProfiler, 33P-ATP); assay type: biochemical; conditions: read-out: The percentage of the remaining active protein
[26] = molecular target: MST1(h) (Homo sapiens (Human), UniProt Q13043); assay: Kinase inhibition assay (KinaseProfiler, 33P-ATP); assay type: biochemical; conditions: read-out: The percentage of the remaining active protein
[27] = molecular target: JNK3(h) (Homo sapiens (Human), UniProt P53779); assay: Kinase inhibition assay (KinaseProfiler, 33P-ATP); assay type: biochemical; conditions: read-out: The percentage of the remaining active protein
[28] = molecular target: IKKε(h) (Homo sapiens (Human), UniProt Q14164); assay: Kinase inhibition assay (KinaseProfiler, 33P-ATP); assay type: biochemical; conditions: read-out: The percentage of the remaining active protein
[29] = molecular target: Fms(Y969C)(h) (Homo sapiens (Human), UniProt P07333, Y969C); assay: Kinase inhibition assay (KinaseProfiler, 33P-ATP); assay type: biochemical; conditions: read-out: The percentage of the remaining active protein
[30] = molecular target: DMPK(h) (Homo sapiens (Human), UniProt Q09013); assay: Kinase inhibition assay (KinaseProfiler, 33P-ATP); assay type: biochemical; conditions: read-out: The percentage of the remaining active protein
[31] = molecular target: p70S6K(h) (Homo sapiens (Human), UniProt P23443); assay: Kinase inhibition assay (KinaseProfiler, 33P-ATP); assay type: biochemical; conditions: read-out: The percentage of the remaining active protein
[32] = molecular target: CK2(h) (Homo sapiens (Human), UniProt P68400); assay: Kinase inhibition assay (KinaseProfiler, 33P-ATP); assay type: biochemical; conditions: read-out: The percentage of the remaining active protein
[33] = molecular target: CaMKIIβ(h) (Homo sapiens (Human), UniProt Q13554); assay: Kinase inhibition assay (KinaseProfiler, 33P-ATP); assay type: biochemical; conditions: read-out: The percentage of the remaining active protein
[34] = test system: MLCK(h); assay: Kinase inhibition assay (KinaseProfiler, 33P-ATP); assay type: biochemical, human; conditions: 10 μM
[35] = molecular target: CaMKK2(h) (Homo sapiens (Human), UniProt Q96RR4); assay: Kinase inhibition assay (KinaseProfiler, 33P-ATP); assay type: biochemical; conditions: read-out: The percentage of the remaining active protein
[36] = molecular target: TSSK1(h) (Homo sapiens (Human), UniProt Q9BXA7); assay: Kinase inhibition assay (KinaseProfiler, 33P-ATP); assay type: biochemical; conditions: read-out: The percentage of the remaining active protein
[37] = molecular target: TrkB (Homo sapiens (Human), UniProt Q16620); assay: Kinase inhibition assay (KinaseProfiler, 33P-ATP); assay type: biochemical; conditions: TrkB(h), read-out: The percentage of the remaining active protein

Chain of PKCι(h) (P41743 whole entry): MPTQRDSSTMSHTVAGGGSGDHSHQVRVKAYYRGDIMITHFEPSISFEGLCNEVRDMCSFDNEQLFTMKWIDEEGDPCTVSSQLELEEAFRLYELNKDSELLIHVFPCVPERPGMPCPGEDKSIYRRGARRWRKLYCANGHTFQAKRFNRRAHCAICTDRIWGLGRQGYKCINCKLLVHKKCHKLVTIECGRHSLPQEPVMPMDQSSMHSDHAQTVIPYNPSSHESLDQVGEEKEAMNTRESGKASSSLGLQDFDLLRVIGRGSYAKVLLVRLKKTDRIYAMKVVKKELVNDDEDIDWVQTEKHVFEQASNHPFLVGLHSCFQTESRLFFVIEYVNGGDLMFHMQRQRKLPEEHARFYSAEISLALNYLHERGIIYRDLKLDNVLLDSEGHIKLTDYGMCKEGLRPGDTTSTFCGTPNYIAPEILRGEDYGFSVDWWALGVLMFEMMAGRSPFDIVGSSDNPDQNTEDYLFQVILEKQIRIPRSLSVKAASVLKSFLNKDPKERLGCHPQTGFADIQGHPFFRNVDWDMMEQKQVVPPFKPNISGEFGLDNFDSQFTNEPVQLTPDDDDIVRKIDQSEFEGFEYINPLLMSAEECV
Chain of PI3 Kinase (p110a(E542K)/p85a)(h) (P42336 whole entry E542K): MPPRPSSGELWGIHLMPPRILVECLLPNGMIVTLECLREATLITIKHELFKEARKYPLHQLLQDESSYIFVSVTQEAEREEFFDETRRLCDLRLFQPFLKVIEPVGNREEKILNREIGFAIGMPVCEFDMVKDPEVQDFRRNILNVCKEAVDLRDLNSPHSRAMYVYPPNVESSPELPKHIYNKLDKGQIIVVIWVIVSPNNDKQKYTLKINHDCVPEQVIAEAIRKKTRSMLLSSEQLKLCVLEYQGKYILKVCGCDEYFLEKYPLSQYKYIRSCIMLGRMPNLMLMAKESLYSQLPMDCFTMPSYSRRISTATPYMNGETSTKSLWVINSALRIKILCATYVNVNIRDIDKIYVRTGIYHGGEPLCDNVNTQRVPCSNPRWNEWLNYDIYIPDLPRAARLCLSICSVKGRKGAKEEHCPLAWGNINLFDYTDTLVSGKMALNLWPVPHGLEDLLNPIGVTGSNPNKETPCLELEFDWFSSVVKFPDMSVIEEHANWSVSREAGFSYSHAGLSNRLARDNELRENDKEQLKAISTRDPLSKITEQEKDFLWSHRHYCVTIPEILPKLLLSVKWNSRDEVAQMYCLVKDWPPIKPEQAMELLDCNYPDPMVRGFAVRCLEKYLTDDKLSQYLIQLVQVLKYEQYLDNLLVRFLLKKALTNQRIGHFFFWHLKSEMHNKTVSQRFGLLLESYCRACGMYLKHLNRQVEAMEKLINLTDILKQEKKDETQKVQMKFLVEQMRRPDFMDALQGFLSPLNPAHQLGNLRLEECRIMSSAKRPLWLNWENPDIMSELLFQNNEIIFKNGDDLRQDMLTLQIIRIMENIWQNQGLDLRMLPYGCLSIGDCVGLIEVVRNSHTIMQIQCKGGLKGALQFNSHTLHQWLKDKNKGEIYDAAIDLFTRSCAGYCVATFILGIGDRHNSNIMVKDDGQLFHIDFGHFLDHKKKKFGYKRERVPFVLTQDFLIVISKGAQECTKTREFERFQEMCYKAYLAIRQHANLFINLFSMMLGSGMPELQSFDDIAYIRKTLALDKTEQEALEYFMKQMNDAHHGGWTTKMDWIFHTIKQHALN
Chain of PI3 Kinase (p110a(E542K)/p85a)(h) (P27986 whole entry partner): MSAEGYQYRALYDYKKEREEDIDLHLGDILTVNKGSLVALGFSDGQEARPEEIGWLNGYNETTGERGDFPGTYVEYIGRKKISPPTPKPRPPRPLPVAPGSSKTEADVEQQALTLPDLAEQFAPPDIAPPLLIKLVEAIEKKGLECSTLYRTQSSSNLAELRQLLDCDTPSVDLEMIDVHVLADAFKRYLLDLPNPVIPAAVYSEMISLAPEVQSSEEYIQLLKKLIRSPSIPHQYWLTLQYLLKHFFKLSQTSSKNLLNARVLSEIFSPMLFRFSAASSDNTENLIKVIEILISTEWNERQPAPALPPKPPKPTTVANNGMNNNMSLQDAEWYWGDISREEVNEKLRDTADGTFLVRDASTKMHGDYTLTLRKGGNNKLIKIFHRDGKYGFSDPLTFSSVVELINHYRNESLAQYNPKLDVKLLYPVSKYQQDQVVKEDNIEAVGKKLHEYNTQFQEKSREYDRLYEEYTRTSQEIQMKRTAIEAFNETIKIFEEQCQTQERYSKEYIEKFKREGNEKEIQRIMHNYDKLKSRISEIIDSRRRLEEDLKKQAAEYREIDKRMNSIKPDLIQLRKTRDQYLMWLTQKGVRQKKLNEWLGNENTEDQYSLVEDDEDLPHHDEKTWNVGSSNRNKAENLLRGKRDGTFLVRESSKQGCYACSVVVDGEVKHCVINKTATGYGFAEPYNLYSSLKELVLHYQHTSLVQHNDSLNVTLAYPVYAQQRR
Chain of AMPKα1(h) (Q13131 whole entry): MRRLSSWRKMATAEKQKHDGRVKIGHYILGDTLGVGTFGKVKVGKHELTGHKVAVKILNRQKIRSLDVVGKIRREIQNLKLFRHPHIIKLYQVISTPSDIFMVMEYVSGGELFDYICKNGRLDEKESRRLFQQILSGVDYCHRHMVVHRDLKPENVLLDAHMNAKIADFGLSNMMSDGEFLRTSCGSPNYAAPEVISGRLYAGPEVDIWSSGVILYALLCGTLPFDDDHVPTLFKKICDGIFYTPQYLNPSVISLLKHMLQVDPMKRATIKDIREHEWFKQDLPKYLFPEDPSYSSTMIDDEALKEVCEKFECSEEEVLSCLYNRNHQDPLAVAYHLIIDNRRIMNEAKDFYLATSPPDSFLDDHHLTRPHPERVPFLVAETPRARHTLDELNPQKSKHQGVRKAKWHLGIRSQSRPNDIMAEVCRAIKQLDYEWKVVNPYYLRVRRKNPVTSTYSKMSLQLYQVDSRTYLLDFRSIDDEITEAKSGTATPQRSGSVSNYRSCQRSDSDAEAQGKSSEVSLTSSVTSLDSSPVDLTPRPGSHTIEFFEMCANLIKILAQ
Chain of AMPKα1(h) (Q9Y478 whole entry partner): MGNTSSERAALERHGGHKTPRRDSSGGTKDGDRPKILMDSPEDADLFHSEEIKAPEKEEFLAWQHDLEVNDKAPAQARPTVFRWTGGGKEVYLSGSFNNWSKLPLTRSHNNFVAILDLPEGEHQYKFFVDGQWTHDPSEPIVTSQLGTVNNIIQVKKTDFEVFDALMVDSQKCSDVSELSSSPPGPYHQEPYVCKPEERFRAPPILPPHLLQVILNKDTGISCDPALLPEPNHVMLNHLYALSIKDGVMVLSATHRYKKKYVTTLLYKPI
Chain of AMPKα1(h) (P54619 whole entry partner): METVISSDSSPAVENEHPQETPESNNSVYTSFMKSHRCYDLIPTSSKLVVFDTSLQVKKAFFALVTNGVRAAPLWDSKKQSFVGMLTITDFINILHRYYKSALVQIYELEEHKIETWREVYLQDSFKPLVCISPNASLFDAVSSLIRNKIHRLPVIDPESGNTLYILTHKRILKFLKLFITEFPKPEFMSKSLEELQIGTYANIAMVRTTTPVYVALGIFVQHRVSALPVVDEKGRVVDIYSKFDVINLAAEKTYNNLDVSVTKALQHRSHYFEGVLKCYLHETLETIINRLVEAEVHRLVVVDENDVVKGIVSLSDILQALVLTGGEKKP
Chain of JNK3(h) (P53779 whole entry): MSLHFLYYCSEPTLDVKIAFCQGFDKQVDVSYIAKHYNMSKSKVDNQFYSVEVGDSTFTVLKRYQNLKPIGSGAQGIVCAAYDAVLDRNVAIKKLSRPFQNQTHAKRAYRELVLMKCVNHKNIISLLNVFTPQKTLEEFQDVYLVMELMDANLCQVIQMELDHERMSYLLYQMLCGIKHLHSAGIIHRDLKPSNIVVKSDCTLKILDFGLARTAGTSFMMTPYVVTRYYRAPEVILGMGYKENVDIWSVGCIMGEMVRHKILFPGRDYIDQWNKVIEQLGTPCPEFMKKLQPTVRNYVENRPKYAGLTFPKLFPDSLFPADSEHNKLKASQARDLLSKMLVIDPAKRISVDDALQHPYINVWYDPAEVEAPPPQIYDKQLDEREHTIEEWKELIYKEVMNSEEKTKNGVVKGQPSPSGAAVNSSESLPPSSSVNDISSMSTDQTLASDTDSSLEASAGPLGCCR
Chain of TGFBR1(h) (P36897 34-503): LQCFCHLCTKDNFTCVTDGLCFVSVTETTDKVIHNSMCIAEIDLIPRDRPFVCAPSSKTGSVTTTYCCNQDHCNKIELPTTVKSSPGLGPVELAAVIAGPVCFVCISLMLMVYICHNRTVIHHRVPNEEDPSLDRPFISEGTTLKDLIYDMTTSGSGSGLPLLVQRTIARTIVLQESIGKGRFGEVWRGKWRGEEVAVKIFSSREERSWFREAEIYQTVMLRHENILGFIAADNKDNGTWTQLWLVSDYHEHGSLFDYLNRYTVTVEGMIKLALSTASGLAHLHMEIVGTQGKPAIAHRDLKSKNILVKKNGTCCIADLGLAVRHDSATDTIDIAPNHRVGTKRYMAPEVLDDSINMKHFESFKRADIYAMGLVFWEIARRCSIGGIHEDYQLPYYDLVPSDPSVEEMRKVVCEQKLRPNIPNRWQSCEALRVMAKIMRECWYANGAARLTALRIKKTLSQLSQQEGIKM
Chain of GSK3α(h) (P49840 whole entry): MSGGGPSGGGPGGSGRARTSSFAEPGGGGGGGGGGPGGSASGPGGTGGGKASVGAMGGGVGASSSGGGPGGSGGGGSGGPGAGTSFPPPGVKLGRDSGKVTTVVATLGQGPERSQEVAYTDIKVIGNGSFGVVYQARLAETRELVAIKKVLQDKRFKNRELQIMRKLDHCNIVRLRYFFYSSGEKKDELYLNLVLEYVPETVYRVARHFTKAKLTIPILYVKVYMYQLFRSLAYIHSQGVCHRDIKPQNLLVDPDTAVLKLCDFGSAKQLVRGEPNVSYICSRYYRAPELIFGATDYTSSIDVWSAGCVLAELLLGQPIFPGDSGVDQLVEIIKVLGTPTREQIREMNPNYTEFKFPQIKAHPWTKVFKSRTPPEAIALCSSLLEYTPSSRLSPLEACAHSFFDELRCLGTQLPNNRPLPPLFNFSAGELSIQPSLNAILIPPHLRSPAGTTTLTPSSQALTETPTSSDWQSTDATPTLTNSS

IC50 [1]: 1260 nM
Compound: Cc1ccc(NC(=O)c2cccc(C(F)(F)F)c2)cc1C#Cc1nn(C2CCN(C)CC2)c2ncnc(N)c12 [Compound 31]

remaining activity at 10 µM [2]: 100%
remaining activity at 10 µM [3]: 93%
remaining activity at 10 µM [4]: 82%
remaining activity at 10 µM [5]: 89%
remaining activity at 10 µM [6]: 94%
remaining activity at 10 µM [7]: 91%
remaining activity at 10 µM [8]: 105%
remaining activity at 10 µM [9]: 94%
remaining activity at 10 µM [10]: 75%
remaining activity at 10 µM [11]: 71%
remaining activity at 10 µM [12]: 101%
remaining activity at 10 µM [13]: 68%
remaining activity at 10 µM [14]: 0%
remaining activity at 10 µM [15]: 109%
remaining activity at 10 µM [16]: 1%
remaining activity at 10 µM [17]: 0%
remaining activity at 10 µM [18]: 88%
remaining activity at 10 µM [19]: 85%
remaining activity at 10 µM [20]: 94%
remaining activity at 10 µM [21]: 30%
remaining activity at 10 µM [22]: 95%
remaining activity at 10 µM [23]: 50%
remaining activity at 10 µM [24]: 79%
remaining activity at 10 µM [25]: 102%
remaining activity at 10 µM [26]: 109%
remaining activity at 10 µM [27]: 40%
remaining activity at 10 µM [28]: 94%
remaining activity at 10 µM [29]: 13%
remaining activity at 10 µM [30]: 91%
remaining activity at 10 µM [31]: 33%
remaining activity at 10 µM [32]: 105%
remaining activity at 10 µM [33]: 85%
The percentage of the remaining active protein [34]: 62%
remaining activity at 10 µM [35]: 55%
remaining activity at 10 µM [36]: 100%
remaining activity at 10 µM [37]: 4%
Compound: Cc1ccc(NC(=O)c2ccc(C)c(C(F)(F)F)c2)cc1C#Cc1nn([C@H]2CC[C@H](O)CC2)c2ncnc(N)c12 [Compound 93]

From patent US10266537B2, “3-acetylenyl-pyrazole-pyrimidine derivative, and preparation method therefor and uses thereof” (Si Chuan University, priority 2015, dated 2019)
